Data from patent EP0007206A1, “Phenethanolamines, their formulations, preparation and use” (ELI LILLY AND COMPANY, priority 1978, dated 1980).
Structures can show the parent of a compound that is named as a salt.

Columns and labels:
[1] = system: Chinese hamster ovary cells; assay: mitotic arrest assay (mitotic inhibitory activity); format: cell-based; conditions: 20.0 mcg/ml, five hours contact
Description: One such test, for example, was a determination of mitotic inhibitory activity. The compounds of this invention have the ability to arrest cultured cells at the mitotic phase (metaphase) of the cell cycle without apparent effect on other stages of the cell cycle. Such mitotic inhibitory activity is an indication that the compounds may have a beneficial effect on the biological activities of antineoplastic drugs. […] The compounds of the invention were administered at 20 mcg./ml. and the number of cells arrested at the mitotic phase out of 1000 cultured cells were counted and compared to the controls which underwent mitotic arrest without a drug present. Two evaluations were carried out for each test compound. The results reported are the percent of cells held at mitosis after five hours contact with the compound of this invention.

[2] = system: aly fast tumor strain of bronchiogenic carcinoma of the lung; assay: combination chemotherapy with cytoxan, implanted bronchiogenic carcinoma (Table 4); format: in vivo, hamsters; conditions: cytoxan 10 mg./kg. i.p. once daily, A 10 mg./kg. s.c. twice daily
Description: (§1) In a typical experiment, laboratory mice were infected by a subcutaneous implantation of a tumor tissue in the axillary region of the body. The implantations were accomplished by means of a trocar. Initial tumor size in each animal generally was about 2 square millimeters. Tumor size was then measured periodically as length and width in mm. Typical tumor systems implanted included adenocarcinoma 755, an Aly Fast strain of bronchiogenic carcinoma, and mecca lymphosarcoma. Oncolytic agents utilized in the tests to determine the potentiating effects of the compounds of the invention.include cytoxan, 5-fluorouracil, vindesine, methotrexate and 6-mercaptopurine. Twenty or thirty infected animals generally were selected as controls and received placebo. Ten infected animals normally were selected to receive a known oncolytic agent. Another ten infected animals were administered the known oncolytic agent in addition to a compound of this invention.
In a similar test, hamsters were infected with an aly fast tumor strain of bronchiogenic carcinoma of the lung. Cytoxan was administered to one group of infected animals at an intraperitoneal dose of 10 mg./kg. once daily. A compound of this invention, N-(2-phenyl-2-hydroxyethyl)-l,l-dimethyl-3-(4-hydroxyphenyl)propylaminium bromide (designated in Table 4 as A), caused a significant synergistic effect when co-administered with cytoxan. Cytoxan was administered i.p. once daily at 10 mg./kg. to the animals receiving the combination chemotherapy, and compound A was administered subcutaneously at the rate of 10 mg./kg. twice daily. It should be noted that the average tumor size for the animals receiving the combination of cytoxan and N-(2-phenyl-2-hydroxyethyl)-l,l-dimethyl-3-(4-hydroxyphenyl)-propylaminium bromide was only 20 square millimeters after the nineteenth day of treatment, while the average tumor size for the group receiving cytoxan was about the same as that for the animals receiving placebo, namely about 1340 square millimeters.

[3] = system: 755 adenocarcinoma; assay: combination chemotherapy with cytoxan at varying doses, implanted 755 adenocarcinoma (Table 8); format: in vivo
Description: as §1
A similar study was carried out with cytoxan at varying doses and the combination of cytoxan and N-(2-phenyl-2-hydroxyethyl)-l,l-dimethyl-3-(4-aminocarbonylphenyl)propylaminium chloride. A group of ten animals infected with the 755 adenocarcinoma were given cytoxan intraperitoneally at the rate of 25 mg./kg. once per day on days 5, 9 and 13 of the test. Another group of infected animals received cytoxan at 12.5 mg./kg. once per day on days 5, 9 and 13. A third group of infected animals received the combination of cytoxan, given i.p. at 12.5 mg./kg. on days 5, 9 and 13, and the compound of this invention (compound B) given subcutaneously twice daily on days 5 through 14 at the dose of 7.5 mg./kg. As indicated by the data, all of the control animals and those receiving the oncolytic agent alone were dead after 73 days. In contrast, six of the ten animals which received combination chemotherapy were still living after 73 days of the test, and all of those still living were tumor free.

[4] = system: adenocarcinoma (CA 755 tumor); assay: combination chemotherapy with vindesine, implanted adenocarcinoma (Table 5); format: in vivo, mice; conditions: vindesine 0.6 mg./kg. i.p. days 1, 5, 9, 13, B 7.5 mg./kg. i.p. twice daily first 15 days
Description: as §1
The animals receiving combination chemotherapy were administered vindesine intraperitoneally according to the above-indicated dosage regimen, and N-(2-phenyl-2-hydroxyethyl)-1,1-dimethyl-3-(4-aminocarbonylphenyl)propylaminium chloride was administered intraperitoneally at the rate of 7.5 mg./kg. twice daily for the first 15 days of the test. Under column I of each of the indicated days of measurement is given the average tumor size in square millimeters for each test group. Column II under each of the indicated days of measurement provides the number of tumor free animals out of those still living on that particular day in each test group. […] In contrast, all of the control animals and those receiving vindesine alone had died by day 40, and none were tumor free after the thirteenth day of the test.

[5] = Day 5, cytoxan 12.5 mg./kg. i.p. days 5, 9, 13, B 7.5 mg./kg. s.c. twice daily days 5 through 14
[6] = Day 5, cytoxan 25 mg./kg. i.p. once per day on days 5, 9, 13
[7] = Day 12, cytoxan 12.5 mg./kg. i.p. days 5, 9, 13, B 7.5 mg./kg. s.c. twice daily days 5 through 14
[8] = Day 12, cytoxan 25 mg./kg. i.p. once per day on days 5, 9, 13
[9] = Day 17, cytoxan 12.5 mg./kg. i.p. days 5, 9, 13, B 7.5 mg./kg. s.c. twice daily days 5 through 14
[10] = Day 17, cytoxan 25 mg./kg. i.p. once per day on days 5, 9, 13
[11] = Day 23, cytoxan 12.5 mg./kg. i.p. days 5, 9, 13, B 7.5 mg./kg. s.c. twice daily days 5 through 14
[12] = Day 23, cytoxan 25 mg./kg. i.p. once per day on days 5, 9, 13
[13] = Day 29, cytoxan 12.5 mg./kg. i.p. days 5, 9, 13, B 7.5 mg./kg. s.c. twice daily days 5 through 14
[14] = Day 29, cytoxan 25 mg./kg. i.p. once per day on days 5, 9, 13

CC(C)(CCc1ccc(O)cc1)NCC(O)c1ccccc1 (racemic) [N-(2-Phenyl-2-hydroxyethyl)-l,l-dimethyl-3-(4-hydroxyphenyl)propylamine]
Mitotic Index (percent of cells held at mitosis) ([1]; first of two evaluations): 36%
Mitotic Index (percent of cells held at mitosis) ([1]; second of two evaluations): 33%

CN(C)C(=O)c1ccc(CCC(C)(C)NCC(O)c2ccccc2)cc1 (racemic) [N-(2-phenyl-2-hydroxyethyl)-1,1-dimethyl-3-(4-dimethylaminocarbonylphenyl)propylaminium oxalate]
Mitotic Index (percent of cells held at mitosis) ([1]; first of two evaluations): 40%
Mitotic Index (percent of cells held at mitosis) ([1]; second of two evaluations): 46%

CNC(=O)c1ccc(CCC(C)(C)NCC(O)c2ccccc2)cc1 (racemic) [N-(2-phenyl-2-hydroxyethyl)-l,l-dimethyl-3-(4-methylaminocarbonylphenyl)propylaminium chloride]
Mitotic Index (percent of cells held at mitosis) ([1]; first of two evaluations): 36%
Mitotic Index (percent of cells held at mitosis) ([1]; second of two evaluations): 38%

O=P1(N(CCCl)CCCl)NCCCO1 (centres unmarked) [Cytoxan, cytoxan]
number of surviving animals out of test group ([2]; Day 0): 10/10
average tumor size ([2]; Day 8): 560 square millimeters
number of surviving animals out of test group ([2]; Day 8): 10/10
average tumor size ([2]; Day 13): 950 square millimeters
number of surviving animals out of test group ([2]; Day 13): 9/10
average tumor size ([2]; Day 19): 1340 square millimeters
number of surviving animals out of test group ([2]; Day 19): 6/10
average tumor size ([2]; Day 19, listed as cytoxan): about 1340 square millimeters
number of tumor free animals out of those still living ([3]; Day 0, cytoxan 12.5 mg./kg. i.p. days 5, 9, 13, B 7.5 mg./kg. s.c. twice daily days 5 through 14): 0/10
number of tumor free animals out of those still living ([3]; Day 0, cytoxan 25 mg./kg. i.p. once per day on days 5, 9, 13): 0/10
average tumor size [3, 5]: 130
number of tumor free animals out of those still living [3, 5]: 0/10
average tumor size [3, 6]: 80
number of tumor free animals out of those still living [3, 6]: 0/10
average tumor size [3, 7]: 190
number of tumor free animals out of those still living [3, 7]: 0/10
average tumor size [3, 8]: 60
number of tumor free animals out of those still living [3, 8]: 1/10
average tumor size [3, 9]: 300
number of tumor free animals out of those still living [3, 9]: 0/10
average tumor size [3, 10]: 60
number of tumor free animals out of those still living [3, 10]: 4/10
average tumor size [3, 11]: 600
number of tumor free animals out of those still living [3, 11]: 1/9
average tumor size [3, 12]: 200
number of tumor free animals out of those still living [3, 12]: 2/9
average tumor size [3, 13]: 800
number of tumor free animals out of those still living [3, 13]: 0/4
average tumor size [3, 14]: 570
number of tumor free animals out of those still living [3, 14]: 0/4
number of tumor free animals out of those still living ([3]; Day 73, cytoxan 12.5 mg./kg. i.p. days 5, 9, 13, B 7.5 mg./kg. s.c. twice daily days 5 through 14): 0/0
number of tumor free animals out of those still living ([3]; Day 73, cytoxan 25 mg./kg. i.p. once per day on days 5, 9, 13): 0/0

CC(C)(CCc1ccc(C(N)=O)cc1)NCC(O)c1ccccc1 (centres unmarked) [N-(2-Phenyl-2-hydroxyethyl)-1,1-dimethyl-3-(4-aminocarbonylphenyl)propylamine]
Mitotic Index (percent of cells held at mitosis) ([1]; first of two evaluations): 57%
Mitotic Index (percent of cells held at mitosis) ([1]; second of two evaluations): 45%

CCC1(O)CC2CN(CCc3c([nH]c4ccccc34)C(C(=O)OC)(c3cc4c(cc3OC)N(C)C3C(O)(C(N)=O)C(O)C5(CC)C=CCN6CCC43C65)C2)C1 (centres unmarked) [VDS, vindesine]
number of tumor free animals out of those still living ([4]; Day 0): 0/10
average tumor size ([4]; Day 8): 35 square millimeters
number of tumor free animals out of those still living ([4]; Day 8): 3/9
average tumor size ([4]; Day 13): 170 square millimeters
number of tumor free animals out of those still living ([4]; Day 13): 0/8
average tumor size ([4]; Day 19): 300 square millimeters
number of tumor free animals out of those still living ([4]; Day 19): 0/8
average tumor size ([4]; Day 26): 620 square millimeters
number of tumor free animals out of those still living ([4]; Day 26): 0/6
number of tumor free animals out of those still living ([4]; Day 40): 0/0
